Source: PubChem BioAssay AID1963977 (Molecular Pharmacology Branch, DTP, NCI, 2024)

Tested on: 624824-186-R-J3-PDC multicell spheroids, viability
Assay: Anticancer human tumor 624824-186-R-J3-PDC patient-derived colon adenocarcinoma cell line growth inhibition [PI3K]
Settings: for viability, T/C: stronger effect = lower value
Description: Combinatorial screen of targeted agents with the PI3K inhibitors inavolisib, alpelisib, duvelisib, and copanlisib in multi-cell type tumor spheroids
A high-throughput screen of multi-cell type tumor spheroids was designed to identify active combinations of targeted small molecules and PI3K pathway inhibitors. Complex spheroids include a stromal component modeled by human endothelial cells (HUVEC) and fibroblasts modeled by human mesenchymal stem cells (MSCs). The concentration ranges selected for each drug and investigational agent were based upon clinically achievable concentrations if the clinical Cmax of the agent was known.
Compounds. The drugs and investigational agents: inavolisib (NSC800729), alpelisib (NSC765974), duvelisib (NSC772469), copanlisib (NSC816437), ipatasertib (NSC767898), afuresertib (NSC778305), talazoparib (NSC767125), sapanisertib (NSC764658), selumetinib (NSC741078), tovorafenib (DAY101, NSC766906), vemurafenib (NSC761431), ravoxertinib (NSC781343), sotorasib (NSC818433), MRTX1133 (NSC 836407), abemaciclib (NSC 768073), palbociclib (NSC758247), venetoclax (NSC 766270), SY5609 (NSC837396), enzalutamide (NSC755605), and darolutamide (NSC825331), were obtained from the National Cancer Institute (NCI) Developmental Therapeutics Program Chemical Repository. The FDA-approved anticancer drug set is available from the NCI Developmental Therapeutics Program. […] The stock solutions were prepared in dimethyl sulfoxide (DMSO, Sigma-Aldrich, St. Louis, MO, cat. D2650) at 800-fold the tested concentration and stored at -70 degrees C prior to their use. All drugs and investigational agents were tested over a range starting from a high concentration at or near the clinical Cmax and decreasing in half-log increments. If the clinical Cmax for an agent had not been determined, the highest concentration tested was 10 microM.
Cell Culture. All cells were maintained in an incubator at 37 degrees C and 5% CO2 with 95% humidity. The PDC lines were cultured according to standard operating procedures established by the NCI PDMR (https://pdmr.cancer.gov/sops/default.htm). All PDCs were thawed and cultured in Matrigel-coated flasks prepared with a working solution of 1X Ham's F-12 nutrient mix, without supplementation (Invitrogen, Waltham, MA, cat. 11765054), 100 U/mL penicillin-streptomycin (Invitrogen, cat. 15140122), and 2.5% Matrigel (Corning Inc., Corning, NY, cat. 354248) for the first three passages. The 354836-022-R-J1-PDC, 475296-252-R-J1-PDC, and 997726-040-R-J2-PDC lines were cultured in 6A media, which includes advanced DMEM/F-12 (Thermo Fisher Scientific, cat. 12634028), 10 mM HEPES (Thermo Fisher Scientific, cat. 15630080), 1X GlutaMAX supplement (Thermo Fisher Scientific, cat. 35050061), 0.1 mg/mL primocin (InvivoGen, San Diego, CA, cat. ant-pm-2), 10% defined fetal bovine serum, heat inactivated (HyClone Laboratories Inc., Logan, UT, cat. SH30070.03HI), 50% L-WRN conditioned media (ATCC, cat. CRL-3276), 1.25 mM N-Acetyl-L-cysteine (Sigma-Aldrich, cat. A9165), 10 mM nicotinamide (Sigma-Aldrich, cat. N0636), 1X B-27 supplement (Thermo Fisher Scientific, cat. 17504044), 1X N-2 supplement (Thermo Fisher Scientific, cat. 17502048), and 10 microM Y-27632 dihydrochloride (Tocris Bioscience, Bristol, United Kingdom, cat. 1254). The 624824-186-R-J2-PDC line was cultured in 6C/Colon 1B media, which includes all 6A media components plus 50 ng/mL human EGF recombinant protein (Thermo Fisher Scientific, cat. PHG0311). […]

[1] = curve of first compound, second compound 0.0316 µM
[2] = curve of first compound, second compound 0.1 µM
[3] = curve of first compound, second compound 0.316 µM
[4] = curve of first compound, second compound 1 µM
[5] = second compound 0.0316 µM, first compound 0.0316 µM
[6] = second compound 0.0316 µM, first compound 0.1 µM
[7] = second compound 0.1 µM, first compound 0.0316 µM
[8] = second compound 0.1 µM, first compound 0.1 µM
[9] = second compound 0.316 µM, first compound 0.0316 µM
[10] = second compound 0.316 µM, first compound 0.1 µM
[11] = second compound 1 µM, first compound 0.0316 µM
[12] = second compound 1 µM, first compound 0.1 µM
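Also: spheroids exposed to agents for seven days before luminescence read.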
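For viability, T/C in this document: luminescent signal used as a stand-in for spheroid viability; percent viability relative to DMSO vehicle control wells taken as 100%.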

CCCS(=O)(=O)Nc1ccc(F)c(C(=O)c2c[nH]c3ncc(-c4ccc(Cl)cc4)cc23)c1F
viability, T/C (compound 0.0316 µM): 99.1% [middle of 4 runs]
viability, T/C (compound 0.1 µM): 97.5% [middle of 4 runs]
viability, T/C (compound 0.316 µM): 102% [middle of 4 runs]
viability, T/C (compound 1 µM): 95.5% [middle of 4 runs]
viability, T/C (compound 3.16 µM): 86% [middle of 4 runs]
viability, T/C (compound 10 µM): 11.9% [middle of 4 runs]
IC50 (curve of compound): 5.47 µM [middle of 4 runs]

CC(C)n1nc(-c2ccc3oc(N)nc3c2)c2c(N)ncnc21 + CC(Nc1ncnc2nc[nH]c12)c1cc2cccc(Cl)c2c(=O)n1-c1ccccc1
IC50 [1]: > 100 nM
IC50 [2]: > 100 nM
IC50 [3]: > 100 nM
IC50 [4]: > 100 nM
IC50 (curve of first compound, second compound 3.16 µM): 91.8 nM
IC50 (curve of first compound, second compound 10 µM): 61.9 nM
viability, T/C (second compound 0.0316 µM, first compound 0.000316 µM): 97.5%
viability, T/C (second compound 0.0316 µM, first compound 0.001 µM): 102%
viability, T/C (second compound 0.0316 µM, first compound 0.00316 µM): 103%
viability, T/C (second compound 0.0316 µM, first compound 0.01 µM): 101%
viability, T/C [5]: 98.7%
viability, T/C [6]: 62.4%
viability, T/C (second compound 0.1 µM, first compound 0.000316 µM): 95.5%
viability, T/C (second compound 0.1 µM, first compound 0.001 µM): 107%
viability, T/C (second compound 0.1 µM, first compound 0.00316 µM): 116%
viability, T/C (second compound 0.1 µM, first compound 0.01 µM): 107%
viability, T/C [7]: 91.5%
viability, T/C [8]: 69%
viability, T/C (second compound 0.316 µM, first compound 0.000316 µM): 98.8%
viability, T/C (second compound 0.316 µM, first compound 0.001 µM): 101%
viability, T/C (second compound 0.316 µM, first compound 0.00316 µM): 113%
viability, T/C (second compound 0.316 µM, first compound 0.01 µM): 109%
viability, T/C [9]: 97.1%
viability, T/C [10]: 58.7%
viability, T/C (second compound 1 µM, first compound 0.000316 µM): 102%
viability, T/C (second compound 1 µM, first compound 0.001 µM): 111%
viability, T/C (second compound 1 µM, first compound 0.00316 µM): 100%
viability, T/C (second compound 1 µM, first compound 0.01 µM): 103%
viability, T/C [11]: 98.1%
viability, T/C [12]: 62.2%
viability, T/C (second compound 3.16 µM, first compound 0.000316 µM): 105%
viability, T/C (second compound 3.16 µM, first compound 0.001 µM): 111%
viability, T/C (second compound 3.16 µM, first compound 0.00316 µM): 96.3%
viability, T/C (second compound 3.16 µM, first compound 0.01 µM): 97.1%
viability, T/C (second compound 3.16 µM, first compound 0.0316 µM): 85.3%
viability, T/C (second compound 3.16 µM, first compound 0.1 µM): 46.6%
viability, T/C (second compound 10 µM, first compound 0.000316 µM): 93.2%
viability, T/C (second compound 10 µM, first compound 0.001 µM): 91.3%
viability, T/C (second compound 10 µM, first compound 0.00316 µM): 95.1%
viability, T/C (second compound 10 µM, first compound 0.01 µM): 79.9%
viability, T/C (second compound 10 µM, first compound 0.0316 µM): 68.1%
viability, T/C (second compound 10 µM, first compound 0.1 µM): 37.6%

CC(Cn1ccc(-c2ccc(C#N)c(Cl)c2)n1)NC(=O)c1cc(C(C)O)[nH]n1 (stereo not drawn) + COc1c(OCCCN2CCOCC2)ccc2c3n(c(=NC(=O)c4cnc(N)nc4)nc12)CCN3
IC50 (curve of first compound, second compound 0.00316 µM): > 10000 nM
IC50 (curve of first compound, second compound 0.01 µM): > 10000 nM
IC50 [1]: > 10000 nM
IC50 [2]: > 10000 nM
IC50 [3]: 239 nM
IC50 [4]: < 31.6 nM
viability, T/C (second compound 0.00316 µM, first compound 0.0316 µM): 106%
viability, T/C (second compound 0.00316 µM, first compound 0.1 µM): 98.6%
viability, T/C (second compound 0.00316 µM, first compound 0.316 µM): 101%
viability, T/C (second compound 0.00316 µM, first compound 1 µM): 96.3%
viability, T/C (second compound 0.00316 µM, first compound 3.16 µM): 103%
viability, T/C (second compound 0.00316 µM, first compound 10 µM): 98.2%
viability, T/C (second compound 0.01 µM, first compound 0.0316 µM): 101%
viability, T/C (second compound 0.01 µM, first compound 0.1 µM): 93.2%
viability, T/C (second compound 0.01 µM, first compound 0.316 µM): 98.2%
viability, T/C (second compound 0.01 µM, first compound 1 µM): 103%
viability, T/C (second compound 0.01 µM, first compound 3.16 µM): 108%
viability, T/C (second compound 0.01 µM, first compound 10 µM): 105%
viability, T/C [5]: 96.6%
viability, T/C [6]: 97.4%
viability, T/C (second compound 0.0316 µM, first compound 0.316 µM): 87.3%
viability, T/C (second compound 0.0316 µM, first compound 1 µM): 95.6%
viability, T/C (second compound 0.0316 µM, first compound 3.16 µM): 91.9%
viability, T/C (second compound 0.0316 µM, first compound 10 µM): 84.5%
viability, T/C [7]: 74.5%
viability, T/C [8]: 79.9%
viability, T/C (second compound 0.1 µM, first compound 0.316 µM): 78%
viability, T/C (second compound 0.1 µM, first compound 1 µM): 76.6%
viability, T/C (second compound 0.1 µM, first compound 3.16 µM): 77%
viability, T/C (second compound 0.1 µM, first compound 10 µM): 68.7%
viability, T/C [9]: 54.6%
viability, T/C [10]: 50.1%
viability, T/C (second compound 0.316 µM, first compound 0.316 µM): 49.8%
viability, T/C (second compound 0.316 µM, first compound 1 µM): 48.2%
viability, T/C (second compound 0.316 µM, first compound 3.16 µM): 40.9%
viability, T/C (second compound 0.316 µM, first compound 10 µM): 38.8%
viability, T/C [11]: 26.9%
viability, T/C [12]: 28.1%
viability, T/C (second compound 1 µM, first compound 0.316 µM): 28.3%
viability, T/C (second compound 1 µM, first compound 1 µM): 28.2%
viability, T/C (second compound 1 µM, first compound 3.16 µM): 24.9%
viability, T/C (second compound 1 µM, first compound 10 µM): 23.6%

COc1c(OCCCN2CCOCC2)ccc2c3n(c(=NC(=O)c4cnc(N)nc4)nc12)CCN3
viability, T/C (compound 0.00316 µM): 102% [middle of 8 runs]
viability, T/C (compound 0.01 µM): 104% [middle of 8 runs]
viability, T/C (compound 0.0316 µM): 102% [middle of 8 runs]
viability, T/C (compound 0.1 µM): 85.9% [middle of 8 runs]
viability, T/C (compound 0.316 µM): 54.4% [middle of 8 runs]
viability, T/C (compound 1 µM): 31.7% [middle of 8 runs]
IC50 (compound alone, run of 04/25/2023): 380 nM [middle of 8 runs]
